This is an account of results in article PMC9033620 (RSC Advances, 2021).

This test has as its target β-tubulin (Sus scrofa, UniProt P02554+Q2XVP4). In words: X-ray crystal structure. Type of test: binding.

For orientation: Kd means the concentration at which binding is half-saturated. Low values mean a tighter complex, high ones a looser complex.

β-tubulin, sequence (Q2XVP4 whole entry): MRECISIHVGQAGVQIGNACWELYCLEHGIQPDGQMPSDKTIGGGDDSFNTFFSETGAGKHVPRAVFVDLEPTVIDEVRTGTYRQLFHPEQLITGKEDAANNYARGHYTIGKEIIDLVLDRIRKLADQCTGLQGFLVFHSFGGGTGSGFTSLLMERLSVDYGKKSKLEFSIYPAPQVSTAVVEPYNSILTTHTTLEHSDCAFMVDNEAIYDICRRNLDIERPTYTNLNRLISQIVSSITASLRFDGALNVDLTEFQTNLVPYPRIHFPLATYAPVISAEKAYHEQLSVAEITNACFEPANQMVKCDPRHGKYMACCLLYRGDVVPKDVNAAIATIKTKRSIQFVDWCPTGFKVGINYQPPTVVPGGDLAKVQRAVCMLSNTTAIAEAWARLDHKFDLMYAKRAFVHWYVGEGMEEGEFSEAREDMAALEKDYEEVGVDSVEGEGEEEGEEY
β-tubulin, sequence (P02554 whole entry): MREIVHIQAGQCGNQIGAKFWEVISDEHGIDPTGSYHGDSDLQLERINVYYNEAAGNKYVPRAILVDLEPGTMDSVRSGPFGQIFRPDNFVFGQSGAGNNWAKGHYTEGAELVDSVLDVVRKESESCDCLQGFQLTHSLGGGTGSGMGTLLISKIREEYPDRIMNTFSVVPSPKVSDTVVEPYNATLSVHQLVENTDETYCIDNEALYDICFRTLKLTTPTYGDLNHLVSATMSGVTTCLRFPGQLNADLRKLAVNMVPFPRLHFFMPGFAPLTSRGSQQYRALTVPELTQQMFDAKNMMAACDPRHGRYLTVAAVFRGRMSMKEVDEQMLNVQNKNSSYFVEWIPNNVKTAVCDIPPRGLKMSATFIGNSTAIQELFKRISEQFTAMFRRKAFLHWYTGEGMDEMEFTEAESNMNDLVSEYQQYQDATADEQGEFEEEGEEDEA

Consider `CCCCc1ccc2[nH]c(NC(=O)OC)nc2c1` [parbendazole], for which binding was put at a Kd of 3.39 µM.
